Test results: ChEMBL document CHEMBL5131399, “Broadening antifungal spectrum and improving metabolic stablity based on a scaffold strategy: Design, synthesis, and evaluation of novel 4-phenyl-4,5-dihydrooxazole derivatives as potent fungistatic and fungicidal reagents” (Eur J Med Chem, 2022)
Converted amounts (≈) assume the structure as drawn.

What was measured:
Type in all cases: functional
Candida albicans [1] = assay: Antifungal activity against FLC-resistant Candida albicans 904 assessed as fungal growth inhibition by NCCLS protocol based method
Candida parapsilosis = assay: Antifungal activity against Candida parapsilosis GIM2.190 assessed as fungal growth inhibition by NCCLS protocol based method; settings: Lodderomyces parapsilosis
Nakaseomyces glabratus = assay: Antifungal activity against Candida glabrata clinical isolate assessed as fungal growth inhibition by NCCLS protocol based method
Candida albicans [2] = assay: Antifungal activity against FLC-resistant Candida albicans 632 assessed as fungal growth inhibition by NCCLS protocol based method
Aspergillus fumigatus = assay: Antifungal activity against Aspergillus fumigatus CGMCC3.7795 assessed as fungal growth inhibition by NCCLS protocol based method
Candida albicans [3] = assay: Antifungal activity against FLC-resistant Candida albicans 901 assessed as fungal growth inhibition by NCCLS protocol based method
Candida albicans [4] = assay: Antifungal activity against Candida albicans CPCC400616 assessed as fungal growth inhibition by NCCLS protocol based method
Candida albicans [5] = assay: Antifungal activity against FLC-resistant Candida albicans 103 assessed as fungal growth inhibition by NCCLS protocol based method
Pichia kudriavzevii = assay: Antifungal activity against Candida krusei GIM2.1 assessed as fungal growth inhibition by NCCLS protocol based method
Candida albicans [6] = assay: Antifungal activity against Candida albicans ATCC SC5314 assessed as fungal growth inhibition by NCCLS protocol based method
Candida albicans [7] = assay: Antifungal activity against FLC-resistant Candida albicans 311 assessed as fungal growth inhibition by NCCLS protocol based method
Candida albicans [8] = assay: Antifungal activity against FLC-resistant Candida albicans 100 assessed as fungal growth inhibition by NCCLS protocol based method
Cryptococcus neoformans = assay: Antifungal activity against Cryptococcus neoformans CGMCC 2.3161 assessed as fungal growth inhibition by NCCLS protocol based method
Candida albicans [9] = assay: Antifungal activity against FLC-resistant Candida albicans CaR assessed as fungal growth inhibition by NCCLS protocol based method
Candida tropicalis = assay: Antifungal activity against Candida tropicalis CGMCC 2.3739 assessed as fungal growth inhibition by NCCLS protocol based method

Cc1ccc(C2(Cn3ccnc3)COC(c3ccc(-c4ccccc4)s3)=N2)cc1 (configuration not stated)
MIC (Candida albicans [1]): 4 µg/mL (≈ 10 µM)
MIC (Candida parapsilosis): 1 µg/mL (≈ 2.5 µM)
MIC (Nakaseomyces glabratus): > 64 µg/mL
MIC (Candida albicans [2]): 16 µg/mL (≈ 40 µM)
MIC (Aspergillus fumigatus): 16 µg/mL (≈ 40 µM)
MIC (Candida albicans [3]): 2 µg/mL (≈ 5.01 µM)
MIC (Candida albicans [4]): 0.125 µg/mL (≈ 0.313 µM)
MIC (Candida albicans [5]): 4 µg/mL (≈ 10 µM)
MIC (Pichia kudriavzevii): > 64 µg/mL
MIC (Candida albicans [6]): 0.125 µg/mL (≈ 0.313 µM)
MIC (Candida albicans [7]): 8 µg/mL (≈ 20 µM)
MIC (Candida albicans [8]): 0.5 µg/mL (≈ 1.25 µM)
MIC (Cryptococcus neoformans): 0.25 µg/mL (≈ 0.626 µM)
MIC (Candida albicans [9]): 2 µg/mL (≈ 5.01 µM)
MIC (Candida tropicalis): 8 µg/mL (≈ 20 µM)

CCc1ccccc1-c1ccc(C2=NC(Cn3ccnc3)(c3ccc(F)cc3)CO2)s1 (configuration not stated)
MIC (Candida parapsilosis): > 64 µg/mL
MIC (Nakaseomyces glabratus): > 64 µg/mL
MIC (Aspergillus fumigatus): > 64 µg/mL
MIC (Candida albicans [4]): > 64 µg/mL
MIC (Pichia kudriavzevii): > 64 µg/mL
MIC (Candida albicans [6]): > 64 µg/mL
MIC (Cryptococcus neoformans): > 64 µg/mL
MIC (Candida tropicalis): > 64 µg/mL

Fc1ccc(C2(Cn3ccnc3)COC(c3ccc(-c4ccccc4Cl)s3)=N2)cc1 (configuration not stated)
MIC (Candida parapsilosis): > 64 µg/mL
MIC (Nakaseomyces glabratus): > 64 µg/mL
MIC (Aspergillus fumigatus): 16 µg/mL (≈ 36.5 µM)
MIC (Candida albicans [4]): 0.25 µg/mL (≈ 0.571 µM)
MIC (Pichia kudriavzevii): > 64 µg/mL
MIC (Candida albicans [6]): 0.5 µg/mL (≈ 1.14 µM)
MIC (Cryptococcus neoformans): > 64 µg/mL
MIC (Candida tropicalis): > 64 µg/mL

Fc1ccc(C2(Cn3ccnc3)COC(c3ccc(-c4cccc(OC(F)(F)F)c4)s3)=N2)cc1 (configuration not stated)
MIC (Candida parapsilosis): > 64 µg/mL
MIC (Nakaseomyces glabratus): > 64 µg/mL
MIC (Aspergillus fumigatus): > 64 µg/mL
MIC (Candida albicans [4]): > 64 µg/mL
MIC (Pichia kudriavzevii): > 64 µg/mL
MIC (Candida albicans [6]): > 64 µg/mL
MIC (Cryptococcus neoformans): > 64 µg/mL
MIC (Candida tropicalis): > 64 µg/mL

COc1cccc(-c2ccc(C3=NC(Cn4ccnc4)(c4ccc(F)cc4)CO3)s2)c1 (configuration not stated)
MIC (Candida parapsilosis): > 64 µg/mL
MIC (Nakaseomyces glabratus): > 64 µg/mL
MIC (Aspergillus fumigatus): > 64 µg/mL
MIC (Candida albicans [4]): > 64 µg/mL
MIC (Pichia kudriavzevii): > 64 µg/mL
MIC (Candida albicans [6]): > 64 µg/mL
MIC (Cryptococcus neoformans): > 64 µg/mL
MIC (Candida tropicalis): > 64 µg/mL

CC(C)c1ccccc1-c1ccc(C2=NC(Cn3ccnc3)(c3ccc(F)cc3)CO2)s1 (configuration not stated)
MIC (Candida parapsilosis): > 64 µg/mL
MIC (Nakaseomyces glabratus): > 64 µg/mL
MIC (Aspergillus fumigatus): > 64 µg/mL
MIC (Candida albicans [4]): > 64 µg/mL
MIC (Pichia kudriavzevii): > 64 µg/mL
MIC (Candida albicans [6]): > 64 µg/mL
MIC (Cryptococcus neoformans): > 64 µg/mL
MIC (Candida tropicalis): > 64 µg/mL

Cc1cccc(C2(Cn3ccnc3)COC(c3ccc(-c4ccccc4)s3)=N2)c1 (configuration not stated)
MIC (Candida albicans [1]): 4 µg/mL (≈ 10 µM)
MIC (Candida parapsilosis): > 64 µg/mL
MIC (Nakaseomyces glabratus): > 64 µg/mL
MIC (Candida albicans [2]): 4 µg/mL (≈ 10 µM)
MIC (Aspergillus fumigatus): > 64 µg/mL
MIC (Candida albicans [3]): 8 µg/mL (≈ 20 µM)
MIC (Candida albicans [4]): 2 µg/mL (≈ 5.01 µM)
MIC (Candida albicans [5]): 4 µg/mL (≈ 10 µM)
MIC (Pichia kudriavzevii): > 64 µg/mL
MIC (Candida albicans [6]): 0.125 µg/mL (≈ 0.313 µM)
MIC (Candida albicans [7]): 4 µg/mL (≈ 10 µM)
MIC (Candida albicans [8]): 0.5 µg/mL (≈ 1.25 µM)
MIC (Cryptococcus neoformans): 0.5 µg/mL (≈ 1.25 µM)
MIC (Candida albicans [9]): 8 µg/mL (≈ 20 µM)
MIC (Candida tropicalis): 4 µg/mL (≈ 10 µM)

Fc1ccccc1C1(Cn2ccnc2)COC(c2ccc(-c3ccccc3)s2)=N1 (configuration not stated)
MIC (Candida albicans [1]): 1 µg/mL (≈ 2.48 µM)
MIC (Candida parapsilosis): 0.25 µg/mL (≈ 0.62 µM)
MIC (Nakaseomyces glabratus): 0.25 µg/mL (≈ 0.62 µM)
MIC (Candida albicans [2]): 1 µg/mL (≈ 2.48 µM)
MIC (Aspergillus fumigatus): 8 µg/mL (≈ 19.8 µM)
MIC (Candida albicans [3]): 1 µg/mL (≈ 2.48 µM)
MIC (Candida albicans [4]): 0.125 µg/mL (≈ 0.31 µM)
MIC (Candida albicans [5]): 0.25 µg/mL (≈ 0.62 µM)
MIC (Pichia kudriavzevii): 1 µg/mL (≈ 2.48 µM)
MIC (Candida albicans [6]): 0.5 µg/mL (≈ 1.24 µM)
MIC (Candida albicans [7]): 0.25 µg/mL (≈ 0.62 µM)
MIC (Candida albicans [8]): 0.125 µg/mL (≈ 0.31 µM)
MIC (Cryptococcus neoformans): 0.5 µg/mL (≈ 1.24 µM)
MIC (Candida albicans [9]): 0.125 µg/mL (≈ 0.31 µM)
MIC (Candida tropicalis): 0.125 µg/mL (≈ 0.31 µM)

CCOc1ccc(-c2ccc(C3=NC(Cn4ccnc4)(c4ccc(F)cc4)CO3)s2)cc1 (configuration not stated)
MIC (Candida parapsilosis): > 64 µg/mL
MIC (Nakaseomyces glabratus): 32 µg/mL (≈ 71.5 µM)
MIC (Aspergillus fumigatus): 8 µg/mL (≈ 17.9 µM)
MIC (Candida albicans [4]): 2 µg/mL (≈ 4.47 µM)
MIC (Pichia kudriavzevii): > 64 µg/mL
MIC (Candida albicans [6]): 0.5 µg/mL (≈ 1.12 µM)
MIC (Cryptococcus neoformans): > 64 µg/mL
MIC (Candida tropicalis): 1 µg/mL (≈ 2.23 µM)

Fc1ccc(C2(Cn3ccnc3)COC(c3ccc(-c4ccc(Cl)cc4)s3)=N2)cc1 (configuration not stated)
MIC (Candida parapsilosis): > 64 µg/mL
MIC (Nakaseomyces glabratus): > 64 µg/mL
MIC (Aspergillus fumigatus): 8 µg/mL (≈ 18.3 µM)
MIC (Candida albicans [4]): 2 µg/mL (≈ 4.57 µM)
MIC (Pichia kudriavzevii): 8 µg/mL (≈ 18.3 µM)
MIC (Candida albicans [6]): 8 µg/mL (≈ 18.3 µM)
MIC (Cryptococcus neoformans): > 64 µg/mL
MIC (Candida tropicalis): 4 µg/mL (≈ 9.13 µM)

COc1cccc(C2(Cn3ccnc3)COC(c3ccc(-c4ccccc4)s3)=N2)c1 (configuration not stated)
MIC (Candida parapsilosis): > 64 µg/mL
MIC (Nakaseomyces glabratus): > 64 µg/mL
MIC (Aspergillus fumigatus): > 64 µg/mL
MIC (Candida albicans [4]): 1 µg/mL (≈ 2.41 µM)
MIC (Pichia kudriavzevii): > 64 µg/mL
MIC (Candida albicans [6]): 0.125 µg/mL (≈ 0.301 µM)
MIC (Cryptococcus neoformans): > 64 µg/mL
MIC (Candida tropicalis): 1 µg/mL (≈ 2.41 µM)

Fc1ccc(C2(Cn3ccnc3)COC(c3ccc(-c4ccc(C(F)(F)F)cc4)s3)=N2)cc1 (configuration not stated)
MIC (Candida parapsilosis): > 64 µg/mL
MIC (Nakaseomyces glabratus): > 64 µg/mL
MIC (Aspergillus fumigatus): > 64 µg/mL
MIC (Candida albicans [4]): > 64 µg/mL
MIC (Pichia kudriavzevii): > 64 µg/mL
MIC (Candida albicans [6]): > 64 µg/mL
MIC (Cryptococcus neoformans): > 64 µg/mL
MIC (Candida tropicalis): > 64 µg/mL
